# Data reported in patent US7183283B2, “Piperidinyl-alkylamino-pyridazinone derivatives, a process for the preparation thereof and pharmaceutical compositions containing said compounds” (Egis Gyogyszergyar RT., priority 2002, dated 2007).
# Assays:
# [1] = tested on: rats; assay: Elevated plus-maze (anxiolytic effect); type: in vivo, rat; details: male Sprague-Dawley rats, po, tested 60 min after treatment, 5 min test time
# Source text: Tests have been performed as described by Pellow and co-workers [J. Neurosci. Methods, 14, 149 (1985)]. A wooden cross, 15 cm wide with 100 cm long arms was used for the experiments. The sides and ends of two opposite arms of the cross were equipped with 40 cm high walls, however, the arms were open to the 15×15 cm central area (closed arms). The two other opposite arms were not encircled by walls (open arms).
# Male Sprague-Dawley rats weighing 200–220 g were used for the experiments. The animals were placed in the central area of the equipment 60 min after treatment and the following four parameters have been observed for the 5 min test time: • time spent in the open arms, • time spent in the closed arms, • number of entries into the open arms, • number of entries into the closed arms.
# The effect was expressed as percent increase in either the time (measured in sec) spent in the open arms or number of entries into the open arms. MEDs (minimal effective dose) were determined for each compound regarding the time spent in the open arms. Results are summarized in Table I. Buspiron [8-[4-[4-(2-pyrimidinyl)-1-piperazinyl]-butyl]-8-azaspiro[4,5]decan-7,9-dion] was used as reference compound.
# [2] = tested on: mice; assay: Inhibition of spontaneous motor activity (sedative effect); type: in vivo
# Experimental: The effect on spontaneous motor activity was investigated according to Borsy and co-workers [Borsy, J. et al, Arch. Int. Pharmacodyn., 124, 180–190 (1960)] in a ten channel Dews instrument, with 1—1 animal in each channel. Animals were placed into the instrument 60 min after per os treatment with either vehicle or test compound, and interruptions of infrared beams were recorded for 30 min. […] Diazepam [7-chloro-1,3-dihydro-1-methyl-5-phenyl-2H-1,4-benzodiazepine-2-one] was used as reference compound.
# [3] = mice, per os, placed in Dews instrument 60 min after treatment, recorded for 30 min
Compound,MED (minimal effective dose) regarding the time spent in the open arms [1],"ID50 (50 percent inhibitory dose), spontaneous motor activity [2, 3] [mg/kg po]","ID50 (50 percent inhibitory dose), spontaneous motor activity ([2]; mouse, in vivo, 60 min) [mg/kg po]",melting point [°C]
"O=C1CC2(CCCC2)CC(=O)N1CCCCN1CCN(c2ncccn2)CC1 [Buspiron, 8-[4-[4-(2-pyrimidinyl)-1-piperazinyl]-butyl]-8-azaspiro[4,5]decan-7,9-dion, reference compound]",3.0 mg/kg po,–,–,–
"CN1C(=O)CN=C(c2ccccc2)c2cc(Cl)ccc21 [Diazepam, 7-chloro-1,3-dihydro-1-methyl-5-phenyl-2H-1,4-benzodiazepine-2-one, reference compound]",–,7.0,–,–
"Cn1ncc(NCCN2CCC(C(=O)c3ccc(F)cc3O)CC2)cc1=O [Example 1, 5-{2-[4-[1-(4-fluoro-2-hydroxy-phenyl)-methanoyl]-piperidine-1-yl]-ethylamino}-2-methyl-2H-pyridazine-3-one]",≦0.03 mg/kg po,–,>100,200 to 202
"Cl.Cl.O=C(c1ccc(F)cc1O)C1CCN(CCNc2cn[nH]c(=O)c2)CC1 [Example 2, 5-{2-[4-[1-(4-fluoro-2-hydroxy-phenyl)-methanoyl]-piperidine-1-yl]-ethylamino}-2H-piridazine-3-one-dihydrochloride]",≦0.3 mg/kg po,>100,–,–
"CC(CNc1cnn(C)c(=O)c1)N1CCC(C(=O)c2ccc(F)cc2O)CC1 (stereo not shown) [Example 3, 5-{2-[4-[1-(4-fluoro-2-hydroxy-phenyl)-methanoyl]-piperidine-1-yl]-propylamino}-2-methyl-2H-pyridazine-3-one]",≦0.3 mg/kg po,–,>100,199 to 201
